Results from patent US20260138970A1, “MODULATORS OF THE CALCIUM SIGNALING CASCADE” (FONDAZIONE TELETHON ETS, priority 2022, published 2026).

Columns and labels:
[1] = test system: TMEM16A; experiment: HS-YFP assay in ITPR-defective HEK293 cells transiently transfected with TMEM16A; format: cell-based; settings: UTP 5 μM, compound 10 μM, FIG. 2D
[2] = target: T1, R269W ITPR1 (Homo sapiens, UniProt Q14643, R269W); experiment: IP3 uncaging assay, HEK293 cells expressing R269W-ITPR1; format: cell-based; settings: compound 10 μM; tetracycline-treated; FIG. 6D
T1 construct: expressed in transfected cells
Method: (§1) HEK293 cells stably transfected with tetracycline-inducible expression of wild type or mutant (R269W or T267M) ITPR1, kindly provided by Prof. S. R. Wayne Chen (University of Calgary; ref. 14), were cultured in a mixture of Dulbecco's Modified Eagle Medium (DMEM, high glucose version) and Ham's F12 (1:1) and supplemented with 10% fetal bovine serum, 2 mM L-glutamine, 100 U/ml penicillin and 100 μg/ml streptomycin. Cells were selected with 0.5 mg/ml hygromycin B and induced with 1 μg/ml tetracycline.
(§2) FRT and HEK293 cells were cultured in μ-Plate96 microplates (Ibidi) at subconfluent condition. Cells were washed 2 times with PBS (150 μl/wash) and then loaded for 45 min at 37° C. with 1 μM ci-IP3/PM (Tocris; catalog number: 6210/10U) and 5 μM Fluo-4/AM (Thermo Fisher Scientific) in PBS containing 10 mM glucose, 0.5 mM sulfinpyrazone and 1% fetal bovine serum. After 45 min, cells were further incubated for 1 h at 37° C. with a fresh PBS solution containing Fluo-4/AM, glucose, sulfinpyrazone, serum, but no ci-IP3/PM. […] Analysis was performed with MetaFluor software, by quantifying Fluo-4 fluorescence in manually selected single cell region of interest (ROI). […] After background subtraction, fluorescence traces were normalized for the initial value.

[3] = target: T2, ITPR1 (Homo sapiens, UniProt Q14643); experiment: ci-IP3/PM uncaging assay in HEK293 cells with selective expression of ITPR1 (HEKR1); format: cell-based; design: host or cells: HEKR1 (HEK293); settings: compounds 10 μM; FIG. 4B
T2 sequence (Q14643 whole entry): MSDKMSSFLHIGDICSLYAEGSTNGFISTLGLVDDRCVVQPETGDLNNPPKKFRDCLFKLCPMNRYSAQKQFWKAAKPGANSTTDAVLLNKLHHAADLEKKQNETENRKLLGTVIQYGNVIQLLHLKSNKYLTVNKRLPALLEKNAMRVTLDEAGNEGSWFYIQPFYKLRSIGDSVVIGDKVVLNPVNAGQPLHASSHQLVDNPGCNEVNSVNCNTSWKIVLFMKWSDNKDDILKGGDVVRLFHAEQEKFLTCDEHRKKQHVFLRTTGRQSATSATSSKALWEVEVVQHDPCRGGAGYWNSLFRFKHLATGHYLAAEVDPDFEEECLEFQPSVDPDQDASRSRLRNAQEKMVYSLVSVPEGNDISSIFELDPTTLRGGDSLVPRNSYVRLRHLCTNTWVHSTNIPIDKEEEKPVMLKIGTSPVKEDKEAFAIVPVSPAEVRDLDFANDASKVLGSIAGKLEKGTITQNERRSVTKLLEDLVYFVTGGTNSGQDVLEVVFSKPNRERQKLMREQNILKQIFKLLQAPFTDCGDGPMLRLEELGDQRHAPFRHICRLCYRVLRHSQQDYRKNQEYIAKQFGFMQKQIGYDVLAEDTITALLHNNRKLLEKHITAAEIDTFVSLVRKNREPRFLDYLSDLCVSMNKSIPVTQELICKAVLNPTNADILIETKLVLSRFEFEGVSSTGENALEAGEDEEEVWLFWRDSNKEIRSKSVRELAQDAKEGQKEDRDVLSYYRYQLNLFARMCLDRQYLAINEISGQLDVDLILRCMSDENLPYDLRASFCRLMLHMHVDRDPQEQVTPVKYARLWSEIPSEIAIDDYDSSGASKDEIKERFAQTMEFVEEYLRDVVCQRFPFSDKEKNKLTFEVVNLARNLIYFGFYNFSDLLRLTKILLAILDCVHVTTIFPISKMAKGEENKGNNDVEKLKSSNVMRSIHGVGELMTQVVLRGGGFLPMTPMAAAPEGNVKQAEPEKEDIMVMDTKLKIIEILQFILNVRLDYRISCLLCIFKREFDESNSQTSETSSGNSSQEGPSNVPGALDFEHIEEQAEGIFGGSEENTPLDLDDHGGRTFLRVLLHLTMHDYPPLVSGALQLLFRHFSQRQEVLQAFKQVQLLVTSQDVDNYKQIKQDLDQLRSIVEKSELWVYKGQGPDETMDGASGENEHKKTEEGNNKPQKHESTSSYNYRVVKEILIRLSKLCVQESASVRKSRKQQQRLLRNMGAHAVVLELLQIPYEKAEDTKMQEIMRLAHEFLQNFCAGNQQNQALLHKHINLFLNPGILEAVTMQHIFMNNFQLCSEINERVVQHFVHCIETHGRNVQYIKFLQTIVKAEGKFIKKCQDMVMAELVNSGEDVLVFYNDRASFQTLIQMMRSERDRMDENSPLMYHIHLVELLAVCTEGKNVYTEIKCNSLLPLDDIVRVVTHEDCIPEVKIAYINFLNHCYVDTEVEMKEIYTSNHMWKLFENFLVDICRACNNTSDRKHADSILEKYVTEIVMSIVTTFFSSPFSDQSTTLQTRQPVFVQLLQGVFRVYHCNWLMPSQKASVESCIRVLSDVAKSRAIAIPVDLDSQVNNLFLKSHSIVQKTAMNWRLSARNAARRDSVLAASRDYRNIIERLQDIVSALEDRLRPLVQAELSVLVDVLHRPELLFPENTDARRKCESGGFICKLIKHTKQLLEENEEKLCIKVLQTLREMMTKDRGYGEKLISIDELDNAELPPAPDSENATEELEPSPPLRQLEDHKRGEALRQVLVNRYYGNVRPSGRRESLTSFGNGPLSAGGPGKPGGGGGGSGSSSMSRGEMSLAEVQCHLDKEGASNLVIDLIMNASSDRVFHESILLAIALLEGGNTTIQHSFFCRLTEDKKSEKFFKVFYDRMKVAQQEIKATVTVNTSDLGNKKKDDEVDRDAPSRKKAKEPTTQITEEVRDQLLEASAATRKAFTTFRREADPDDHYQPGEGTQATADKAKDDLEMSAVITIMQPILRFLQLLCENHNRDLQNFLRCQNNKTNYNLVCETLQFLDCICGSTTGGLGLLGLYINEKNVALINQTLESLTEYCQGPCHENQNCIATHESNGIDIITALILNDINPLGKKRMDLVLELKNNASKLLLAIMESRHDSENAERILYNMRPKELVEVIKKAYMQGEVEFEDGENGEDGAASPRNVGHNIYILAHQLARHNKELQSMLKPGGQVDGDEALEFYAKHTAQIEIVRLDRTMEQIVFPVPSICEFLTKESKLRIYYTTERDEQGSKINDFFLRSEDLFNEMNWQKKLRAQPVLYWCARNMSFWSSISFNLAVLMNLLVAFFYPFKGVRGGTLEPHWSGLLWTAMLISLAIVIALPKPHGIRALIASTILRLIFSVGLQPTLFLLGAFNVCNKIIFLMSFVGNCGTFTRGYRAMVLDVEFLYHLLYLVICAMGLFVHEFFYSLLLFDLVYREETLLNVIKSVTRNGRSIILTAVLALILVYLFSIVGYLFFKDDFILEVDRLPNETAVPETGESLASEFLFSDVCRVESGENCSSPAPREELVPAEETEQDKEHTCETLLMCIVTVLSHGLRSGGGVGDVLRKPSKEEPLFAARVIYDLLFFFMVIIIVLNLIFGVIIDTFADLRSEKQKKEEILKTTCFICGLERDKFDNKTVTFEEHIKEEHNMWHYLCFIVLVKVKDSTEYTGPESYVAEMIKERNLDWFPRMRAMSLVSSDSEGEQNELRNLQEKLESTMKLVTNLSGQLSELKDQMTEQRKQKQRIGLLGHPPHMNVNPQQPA
Method: HEK293 cells totally devoid of ITPR expression (HEK3XKO) or with selective expression of ITPR1 (HEKR1), ITPR2 (HEKR2), or ITPR3 (HEKR3), obtained by selective gene ablation, were purchased from Kerafast (catalog number: EURO30, EURO31, EURO32, EURO33) and cultured in a mixture of Dulbecco's Modified Eagle Medium (DMEM, high glucose version) and Ham's F12 (1:1) and supplemented with 10% fetal bovine serum, 2 mM L-glutamine, 100 U/ml penicillin and 100 μg/ml streptomycin.
as §2

[4] = target: T2, ITPR1; experiment: On-nucleus patch-clamp single-channel recordings, HEKR1 cells expressing ITPR1-EYFP; format: biochemical; design: EYFP; expressed in transfected cells; nuclei isolated for on-nucleus patch clamp; settings: 20 μM in pipette solution
Method: Nuclear membrane patch currents were recorded in HEKR1 cells stably transfected with a plasmid encoding human ITPR1 tagged with Enhanced Yellow Fluorescent Protein (EYFP) kindly provided by Prof. Colin W. Taylor (University of Cambridge) (17). For nuclei isolation, at least 1,000,000 HEKR1-ITPR1-EYFP cells plated in a 35 mm Petri dish were used following the protocol for patch clamp on the outer nuclear membrane (18,19). Briefly, a Duall homogenizer 20 tube (Kimble Chase 885482-0020) and a tissue grind (Kimble 885480-0020) were used. 20 strokes were applied to cells suspended in NIS-0 solution (25). NIS-O solution consisted of 40 ml of sucrose buffer (150 mM KCl, 250 mM sucrose, 1.4 mM β-mercaptoethanol, 10 mM Tris-HCl; pH 7.3 with KOH) supplemented with one tablet of complete protease inhibitor cocktail (Roche) and 200 μM PMSF.
Borosilicate glass pipettes were pulled on a two-step vertical puller (Narishige) to a final resistance of around 15-20 MO, as measured in the working solution. […]
During experiments, the membrane capacitance was analogically compensated using the circuitry provided by the EPC10 patch-clamp amplifier. […] Data were analysed using the Igor software (WaveMetrics, Lake Oswego, OR, USA) supplemented by custom software kindly provided by Dr. Oscar Moran (Institute of Biophysics, CNR, Genova, Italy).

[5] = target: T3, T267M ITPR1 (Homo sapiens, UniProt Q14643, T267M); experiment: IP3 uncaging assay, HEK293 cells expressing T267M-ITPR1; format: cell-based; settings: compound 10 μM; tetracycline-treated; FIG. 6D
T3 construct: expressed in transfected cells
Method: as §1, §2

CCn1nc2c(c1C(=O)Nc1ccccc1OCC1CCCCO1)CCCC2 (stereo not drawn) [ARN11391, 2-Ethyl-N-[2-(tetrahydropyran-2-ylmethoxy)phenyl]-4,5,6,7-tetrahydroindazole-3-carboxamide]
activation of TMEM16A by UTP with/without compound (HS-YFP) [1]: no activation | Ca2+ mobilization elicited by IP3 uncaging, R269W-ITPR1 [2]: significantly amplified | activity on Ca2+ mobilization by IP3 uncaging, cells with selective expression of ITPR1 [3]: uniquely effective | open channel probability (Po), average ([4]; Vp=+40 mV, FIG. 6A): ~0.2 | attempts with single channel openings of the expected ITPR1 current amplitude ([4]; ~10 pA at +40 mV): 5 out of 32 | Ca2+ mobilization elicited by IP3 uncaging, T267M-ITPR1 [5]: significantly amplified
